Measured values: patent US20140348819A1, “Methods of Treating Cancer” (Dana-Farber Cancer Institute, Inc., priority 2011, published 2014)

Tests used:
Format in all cases: cell-based, human
[1] = system: V600E BRAF melanoma cell lines; assay: HGF-induced / stromal resistance of melanoma cell lines to BRAF, MEK and AKT inhibitors and its reversal
[2] = system: six V600E BRAF melanoma cell lines; assay: Screening of recombinant RTK ligands for ability to confer resistance to BRAFi (PLX4720) or MEKi (PD184352) (Table 4); design: ability of recombinant RTK ligand to confer resistance / ability of recombinant RTK ligand to confer resistance (screening value): scale not given here
How it was run: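 Resistance to BRAFi (PLX4720) or MEKi (PD184352) was tested in six V600E BRAF melanoma lines given one of 22 recombinant RTK ligands. For a subset of RTKs, activation was checked by high-throughput tyrosine kinase phosphorylation profiling and western blot.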

pERK/pAKT = assay: High-throughput western analysis of pERK/pAKT re-activation by RTK ligands under BRAFi/MEKi

HGF: paracrine cellular growth factor, ligand of the RTK c-MET
HGF-conferred resistance, BRAFi versus MEKi ([1]; FIG. 11C): better resistance to BRAFi than MEKi
HGF-conferred resistance ([1]; combination of BRAFi and AKTi (MK-2206)): confers resistance
ability of recombinant RTK ligand to confer resistance ([2]; A2058, PD184352 - 1 uM, ligand 0.4 ng/ml): 1.02
ability of recombinant RTK ligand to confer resistance ([2]; A2058, PD184352 - 1 uM, ligand 1.6 ng/ml): 1.01
ability of recombinant RTK ligand to confer resistance ([2]; A2058, PD184352 - 1 uM, ligand 6.25 ng/ml): 1.10
ability of recombinant RTK ligand to confer resistance ([2]; A2058, PD184352 - 1 uM, ligand 25 ng/ml): 1.10
ability of recombinant RTK ligand to confer resistance ([2]; A2058, PD184352 - 1 uM, ligand 100 ng/ml): 1.66
ability of recombinant RTK ligand to confer resistance ([2]; A2058, PLX4720 - 2 uM, ligand 0.4 ng/ml): 1.03
ability of recombinant RTK ligand to confer resistance ([2]; A2058, PLX4720 - 2 uM, ligand 1.6 ng/ml): 1.02
ability of recombinant RTK ligand to confer resistance ([2]; A2058, PLX4720 - 2 uM, ligand 6.25 ng/ml): 1.12
ability of recombinant RTK ligand to confer resistance ([2]; A2058, PLX4720 - 2 uM, ligand 25 ng/ml): 1.32
ability of recombinant RTK ligand to confer resistance ([2]; A2058, PLX4720 - 2 uM, ligand 100 ng/ml): 1.49
ability of recombinant RTK ligand to confer resistance ([2]; C32, PD184352 - 1 uM, ligand 0.4 ng/ml): 1.10
ability of recombinant RTK ligand to confer resistance ([2]; C32, PD184352 - 1 uM, ligand 1.6 ng/ml): 1.08
ability of recombinant RTK ligand to confer resistance ([2]; C32, PD184352 - 1 uM, ligand 6.25 ng/ml): 1.29
ability of recombinant RTK ligand to confer resistance ([2]; C32, PD184352 - 1 uM, ligand 25 ng/ml): 1.08
ability of recombinant RTK ligand to confer resistance ([2]; C32, PD184352 - 1 uM, ligand 100 ng/ml): 1.96
ability of recombinant RTK ligand to confer resistance ([2]; C32, PLX4720 - 2 uM, ligand 0.4 ng/ml): 1.04
ability of recombinant RTK ligand to confer resistance ([2]; C32, PLX4720 - 2 uM, ligand 1.6 ng/ml): 1.15
ability of recombinant RTK ligand to confer resistance ([2]; C32, PLX4720 - 2 uM, ligand 6.25 ng/ml): 1.42
ability of recombinant RTK ligand to confer resistance ([2]; C32, PLX4720 - 2 uM, ligand 25 ng/ml): 1.96
ability of recombinant RTK ligand to confer resistance ([2]; C32, PLX4720 - 2 uM, ligand 100 ng/ml): 2.01
ability of recombinant RTK ligand to confer resistance ([2]; Colo 829, PD184352 - 1 uM, ligand 0.4 ng/ml): 0.96
ability of recombinant RTK ligand to confer resistance ([2]; Colo 829, PD184352 - 1 uM, ligand 1.6 ng/ml): 0.99
ability of recombinant RTK ligand to confer resistance ([2]; Colo 829, PD184352 - 1 uM, ligand 6.25 ng/ml): 1.12
ability of recombinant RTK ligand to confer resistance ([2]; Colo 829, PD184352 - 1 uM, ligand 25 ng/ml): 1.41
ability of recombinant RTK ligand to confer resistance ([2]; Colo 829, PD184352 - 1 uM, ligand 100 ng/ml): 1.89
ability of recombinant RTK ligand to confer resistance ([2]; Colo 829, PLX4720 - 2 uM, ligand 0.4 ng/ml): 1.00
ability of recombinant RTK ligand to confer resistance ([2]; Colo 829, PLX4720 - 2 uM, ligand 1.6 ng/ml): 1.02
ability of recombinant RTK ligand to confer resistance ([2]; Colo 829, PLX4720 - 2 uM, ligand 6.25 ng/ml): 1.14
ability of recombinant RTK ligand to confer resistance ([2]; Colo 829, PLX4720 - 2 uM, ligand 25 ng/ml): 1.35
ability of recombinant RTK ligand to confer resistance ([2]; Colo 829, PLX4720 - 2 uM, ligand 100 ng/ml): 1.71
ability of recombinant RTK ligand to confer resistance ([2]; G-361, PD184352 - 1 uM, ligand 0.4 ng/ml): 1.17
ability of recombinant RTK ligand to confer resistance ([2]; G-361, PD184352 - 1 uM, ligand 1.6 ng/ml): 1.03
ability of recombinant RTK ligand to confer resistance ([2]; G-361, PD184352 - 1 uM, ligand 6.25 ng/ml): 1.19
ability of recombinant RTK ligand to confer resistance ([2]; G-361, PD184352 - 1 uM, ligand 25 ng/ml): 1.68
ability of recombinant RTK ligand to confer resistance ([2]; G-361, PD184352 - 1 uM, ligand 100 ng/ml): 1.10
ability of recombinant RTK ligand to confer resistance ([2]; G-361, PLX4720 - 2 uM, ligand 0.4 ng/ml): 0.97
ability of recombinant RTK ligand to confer resistance ([2]; G-361, PLX4720 - 2 uM, ligand 1.6 ng/ml): 1.03
ability of recombinant RTK ligand to confer resistance ([2]; G-361, PLX4720 - 2 uM, ligand 6.25 ng/ml): 1.24
ability of recombinant RTK ligand to confer resistance ([2]; G-361, PLX4720 - 2 uM, ligand 25 ng/ml): 2.27
ability of recombinant RTK ligand to confer resistance ([2]; G-361, PLX4720 - 2 uM, ligand 100 ng/ml): 9.24
ability of recombinant RTK ligand to confer resistance ([2]; SK-MEL-5, PD184352 - 1 uM, ligand 0.4 ng/ml): 0.99
ability of recombinant RTK ligand to confer resistance ([2]; SK-MEL-5, PD184352 - 1 uM, ligand 1.6 ng/ml): 1.17
ability of recombinant RTK ligand to confer resistance ([2]; SK-MEL-5, PD184352 - 1 uM, ligand 6.25 ng/ml): 1.16
ability of recombinant RTK ligand to confer resistance ([2]; SK-MEL-5, PD184352 - 1 uM, ligand 25 ng/ml): 1.81
ability of recombinant RTK ligand to confer resistance ([2]; SK-MEL-5, PD184352 - 1 uM, ligand 100 ng/ml): 2.32
ability of recombinant RTK ligand to confer resistance ([2]; SK-MEL-5, PLX4720 - 2 uM, ligand 0.4 ng/ml): 0.98
ability of recombinant RTK ligand to confer resistance ([2]; SK-MEL-5, PLX4720 - 2 uM, ligand 1.6 ng/ml): 1.37
ability of recombinant RTK ligand to confer resistance ([2]; SK-MEL-5, PLX4720 - 2 uM, ligand 6.25 ng/ml): 1.35
ability of recombinant RTK ligand to confer resistance ([2]; SK-MEL-5, PLX4720 - 2 uM, ligand 25 ng/ml): 1.95
ability of recombinant RTK ligand to confer resistance ([2]; SK-MEL-5, PLX4720 - 2 uM, ligand 100 ng/ml): 1.93
ability of recombinant RTK ligand to confer resistance ([2]; SK-MEL-28, PD184352 - 1 uM, ligand 0.4 ng/ml): 1.11
ability of recombinant RTK ligand to confer resistance ([2]; SK-MEL-28, PD184352 - 1 uM, ligand 1.6 ng/ml): 1.16
ability of recombinant RTK ligand to confer resistance ([2]; SK-MEL-28, PD184352 - 1 uM, ligand 6.25 ng/ml): 1.22
ability of recombinant RTK ligand to confer resistance ([2]; SK-MEL-28, PD184352 - 1 uM, ligand 25 ng/ml): 1.46
ability of recombinant RTK ligand to confer resistance ([2]; SK-MEL-28, PD184352 - 1 uM, ligand 100 ng/ml): 1.87
ability of recombinant RTK ligand to confer resistance ([2]; SK-MEL-28, PLX4720 - 2 uM, ligand 0.4 ng/ml): 1.05
ability of recombinant RTK ligand to confer resistance ([2]; SK-MEL-28, PLX4720 - 2 uM, ligand 1.6 ng/ml): 1.42
ability of recombinant RTK ligand to confer resistance ([2]; SK-MEL-28, PLX4720 - 2 uM, ligand 6.25 ng/ml): 1.55
ability of recombinant RTK ligand to confer resistance ([2]; SK-MEL-28, PLX4720 - 2 uM, ligand 25 ng/ml): 3.85
ability of recombinant RTK ligand to confer resistance ([2]; SK-MEL-28, PLX4720 - 2 uM, ligand 100 ng/ml): 2.20
ability of RTK ligand to confer primary resistance ([2]; six V600E BRAF melanoma cell lines, BRAFi (PLX4720) or MEKi (PD184352)): confer substantial primary resistance
activation of pAKT by HGF over time (pERK/pAKT; under BRAFi (PLX4720)): sustained over time
reactivation of pERK by HGF (pERK/pAKT; under BRAFi (PLX4720)): substantially reactivate pERK
re-activation of pERK/pAKT (pERK/pAKT; under BRAFi (PLX4720), after 1 hour of cytokine treatment, six V600E BRAF melanoma cell lines): reactivate both ERK and AKT
reactivation of pERK by HGF (pERK/pAKT; under MEKi (PD184352)): not under MEKi
activation of pAKT by RTK ligands (pERK/pAKT; under PLX4720, FIG. 10B): activates AKT in every cell lines tested
duration of ERK/AKT activation (pERK/pAKT; under PLX4720 treatment): long lasting
